# According to PMC9820316, “Novel Arylpiperazine Derivatives of Salicylamide with α1-Adrenolytic Properties Showed Antiarrhythmic and Hypotensive Properties in Rats” (International Journal of Molecular Sciences, 2022):
# Columns and labels:
# [1] = system: pressor response to methoxamine in rats; assay: Influence on blood vasopressor response to methoxamine in rats; format: in vivo, rat; conditions: methoxamine 150 μg/kg before and 5 min after compound
# Method: The experiment was performed to establish the effect of the studied derivatives on the pressor response to methoxamine (150 µg/kg, iv), according to the methods described previously. Normotensive Wistar rats were anesthetized with thiopental (75 mg/kg ip). The right carotid artery was cannulated with a polyethylene tube filled with heparin solution using a Datamax apparatus (Columbus Instruments, Columbus, OH, USA). After a 15-min stabilization period, the pressor response to methoxamine before (control) and 5 min after the administration of the tested compounds was measured (Figure 4B). The tested compounds were administered at the lowest hypotensive dose.
# [2] = system: adrenaline-induced arrhythmia model in rats; assay: Therapeutic antiarrhythmic activity in adrenaline-induced arrhythmia; conditions: number of animals with event
# Method: The experiments were carried out according to the method described by Szekeres and Papp [71]. The heart rhythm disturbances, such as extrasystoles, conduction blocks, and bradycardia, were induced by iv injection of adrenaline (20 µg/kg) to anesthetized rats (thiopental, 75 mg/kg, ip). […] The Aspel ASCARD apparatus (standard II lead, with a tape of speed 50 mm/s and voltage calibration of 1 mV = 1 cm) was used for the ECG measurements. The ECG was recorded during the first 2 min and in the 5th, 10th, and 15th min after the adrenaline injection (Figure 3B). The lack or decreased amount of extrasystoles, atrioventricular blocks, and bradycardia in the ECG recordings compared to the control group was the criterion of antiarrhythmic activity [72].
# Automated ECG waveform analysis was evaluated as described earlier [55], using Eleven Maze software version 0.1 from Eleven Products Sp. z o.o. […] The software, under expert supervision, recognized and classified the heart rhythm irregularities. It also calculated PQ, QRS, QTc, and rate parameters.
# [3] = system: normal ECG in rats; assay: Effect on a normal electrocardiogram in rats; format: in vivo, rat; conditions: for effect on the heart rate during the ECG recording / HR—heart rate / PQ interval / QRS complex / QTc (Bazzett's formula) / decrease of the heart rate: 5 mg/kg iv; for HR—heart rate / PQ interval / QRS complex / QTc (Bazzett's formula): mean ± SD; for PQ interval / QRS complex / QTc (Bazzett's formula): in ms (unit assumed)
# Method: The procedure was performed to exclude the negative effects of the tested compounds on the normal ECG, according to the method described earlier. […] Firstly, animals were anesthetized with thiopental (75 mg/kg ip). […] The influence on PQ, QTc interval, QRS complex, and heart rate was evaluated. The Bazzett’s formula: QTc = QT/√RR was used to calculate QTc. All the studied compounds were administered at a dose of 5 mg/kg.
# [4] = target: α2-adrenergic receptors; assay: α2-adrenoceptor radioligand binding assay ([3H]-clonidine, rat cortex); conditions: rat cortex tissue, mean ± SEM, n.a. = did not bind at 10^−5 M
# Method: The α1- and α2-adrenoceptor radioligand binding assays were performed on the rat cerebral cortex using previously described methods. […] The brains were homogenized using the ULTRA-TURRAX homogenizer in 10 mL of an ice-cold 50 mM Tris-HCl buffer (pH 7.6). The homogenates were centrifuged at 20,000× g for 20 min (0–4 °C). Subsequently, the cell pellet was resuspended in the Tris–HCl buffer and centrifuged again. Radioligand binding assays were carried out in plates (MultiScreen/Millipore). The final incubation mixture, with a volume of 300 μL, consisted of 240 μL of the tissue suspension, 30 μL of the radioligand solution, and 30 μL of the buffer containing 7–8 concentrations of the studied compounds. In order to measure the unspecific binding, 10 μM phentolamine (for [^3H]-prazosin) or 10 μM clonidine (for [^3H]-clonidine) were utilized. The incubation was completed by rapid filtration through Whatman GF/C filters using a vacuum manifold (Millipore). The filters were then washed twice with the assay buffer and placed in scintillation vials with a liquid scintillation cocktail. Radioactivity was measured in a WALLAC 1409 DSA liquid scintillation counter (Perkin Elmer, USA). All the assays were performed in duplicates, and the inhibitory constants (Ki) were calculated.
# [5] = system: aconitine-induced arrhythmia model in rats; assay: Prophylactic antiarrhythmic activity in aconitine-induced arrhythmia; format: in vivo, rat; conditions: 5 mg/kg iv 15 min before aconitine 20 μg/kg; number of animals with event
# Method: (§1) The animals were anesthetized with thiopental (75 mg/kg ip). Depending on the model, either adrenaline, aconitine, or calcium chloride was used as an arrhythmogen. Adrenaline and aconitine were administered iv at a dose of 20 µg/kg, whereas calcium chloride was administered at a dose of 140 mg/kg to induce heart rhythm disturbances. The tested compounds were injected iv 15 min before the arrhythmogen. Aspel ASCARD apparatus (standard II lead, with the tape speed 50 mm/s and voltage calibration 1 mV = 1 cm) was used for ECG measurements. […] The ED50 was calculated using the method of Litchfield and Wilcoxon.
# [6] = system: adrenaline-induced arrhythmia model in rats; assay: Prophylactic antiarrhythmic activity in adrenaline-induced arrhythmia; format: in vivo, rat; conditions: for Blocks / Bradycardia / Extrasystoles / Mortality: number of animals with event; for ED50: prophylactic, iv 15 min before adrenaline 20 μg/kg, confidence limits in brackets (Litchfield and Wilcoxon)
# Method: as §1
# [7] = system: calcium chloride-induced arrhythmia model in rats; assay: Prophylactic antiarrhythmic activity in calcium chloride-induced arrhythmia; format: in vivo, rat; conditions: 5 mg/kg iv 15 min before calcium chloride 140 mg/kg; number of animals with event
# Method: as §1
# [8] = 1 mg/kg iv immediately after adrenaline 20 µg/kg
# [9] = 0 min (prior to administration)
# [10] = 0.05 mg/kg iv 15 min before adrenaline 20 μg/kg
# [11] = 0.1 mg/kg iv 15 min before adrenaline 20 μg/kg
# [12] = 0.25 mg/kg iv 15 min before adrenaline 20 μg/kg
# [13] = 5 mg/kg iv immediately after adrenaline 20 µg/kg
# [14] = 0.5 mg/kg iv 15 min before adrenaline 20 μg/kg
# [15] = 1 mg/kg iv 15 min before adrenaline 20 μg/kg
smiles,measurement,setting,value
"Cl.NC(=O)c1ccccc1OCCCCN1CCN(c2cccc(Cl)c2)CC1 [JJGW01, 2-{4-[4-(3-chlorophenyl)piperazin-1-ylo]butoxy}benzamide hydrochloride]",attenuation of the methoxamine pressor response,[1]; 1 mg/kg iv,81%
same,Blocks,[2]; [8],3/5
same,Bradycardia,[2]; [8],2/5
same,Mortality,[2]; [8],0/5
same,effect on the heart rate during the ECG recording,[3],did not affect the heart rate
same,HR—heart rate,[3]; [9],311.8 ± 11.6
same,PQ interval,[3]; [9],42.3 ± 3.4
same,QRS complex,[3]; [9],49.3 ± 7.8
same,QTc (Bazzett's formula),[3]; [9],196.0 ± 14.2
same,HR—heart rate,[3]; 5 min,318.0 ± 28.5
same,PQ interval,[3]; 5 min,42.3 ± 2.0
same,QRS complex,[3]; 5 min,46.7 ± 5.6
same,QTc (Bazzett's formula),[3]; 5 min,193.7 ± 14.9
same,HR—heart rate,[3]; 10 min,324.6 ± 23.1
same,PQ interval,[3]; 10 min,41.3 ± 2.4
same,QRS complex,[3]; 10 min,48.0 ± 4.2
same,QTc (Bazzett's formula),[3]; 10 min,186.6 ± 9.0
same,HR—heart rate,[3]; 15 min,324.0 ± 23.1
same,PQ interval,[3]; 15 min,41.0 ± 3.3
same,QRS complex,[3]; 15 min,50.3 ± 4.6
same,QTc (Bazzett's formula),[3]; 15 min,190.6 ± 14.5
same,Adrenergic Receptors—pKi α2,[4],6.13 ± 0.02
same,Blocks,[5],6/6
same,Bradycardia,[5],6/6
same,Extrasystoles,[5],5/6
same,Fibrillations,[5],6/6
same,Mortality,[5],6/6
same,Blocks,[6]; [10],6/6
same,Bradycardia,[6]; [10],6/6
same,Extrasystoles,[6]; [10],6/6
same,Mortality,[6]; [10],4/6
same,Blocks,[6]; [11],5/6
same,Bradycardia,[6]; [11],3/6
same,Extrasystoles,[6]; [11],5/6
same,Mortality,[6]; [11],0/6
same,Blocks,[6]; [12],4/6
same,Bradycardia,[6]; [12],2/6
same,Extrasystoles,[6]; [12],4/6
same,Mortality,[6]; [12],1/6
same,ED50,[6],0.10 (0.03–0.36) mg/kg
same,Blocks,[7],6/6
same,Bradycardia,[7],6/6
same,Extrasystoles,[7],6/6
same,Fibrillations,[7],6/6
same,Mortality,[7],6/6
"COc1ccccc1N1CCN(Cc2ccc(COc3ccccc3C(N)=O)cc2)CC1.Cl [JJGW12, 2-[(4-{[4-(2-metoxyphenyl)piperazin-1-ylo]methyl}phenyl)metoxy}benzamide hydrochloride]",attenuation of the methoxamine pressor response,[1]; 5 mg/kg iv,97%
same,Blocks,[2]; [13],6/6
same,Bradycardia,[2]; [13],6/6
same,Mortality,[2]; [13],6/6
same,effect on the heart rate during the ECG recording,[3],did not affect the heart rate
same,HR—heart rate,[3]; [9],254.6 ± 41.2
same,PQ interval,[3]; [9],44.1 ± 6.2
same,QRS complex,[3]; [9],41.9 ± 2.1
same,QTc (Bazzett's formula),[3]; [9],190.8 ± 15.2
same,HR—heart rate,[3]; 5 min,256.8 ± 47.1
same,PQ interval,[3]; 5 min,43.6 ± 1.2
same,QRS complex,[3]; 5 min,44.5 ± 3.6
same,QTc (Bazzett's formula),[3]; 5 min,194.3 ± 16.8
same,HR—heart rate,[3]; 10 min,255.2 ± 53.6
same,PQ interval,[3]; 10 min,45.9 ± 2.4
same,QRS complex,[3]; 10 min,44.2 ± 2.3
same,QTc (Bazzett's formula),[3]; 10 min,190.3 ± 25.9
same,HR—heart rate,[3]; 15 min,250.2 ± 51.5
same,PQ interval,[3]; 15 min,45.5 ± 3.1
same,QRS complex,[3]; 15 min,45.2 ± 5.9
same,QTc (Bazzett's formula),[3]; 15 min,195.8 ± 25.5
same,Adrenergic Receptors—pKi α2,[4],6.11 ± 0.01
same,Blocks,[5],5/6
same,Bradycardia,[5],6/6
same,Extrasystoles,[5],6/6
same,Fibrillations,[5],5/6
same,Mortality,[5],6/6
same,Blocks,[6]; [12],6/6
same,Bradycardia,[6]; [12],5/6
same,Extrasystoles,[6]; [12],6/6
same,Mortality,[6]; [12],3/6
same,Blocks,[6]; [14],4/5
same,Bradycardia,[6]; [14],3/5
same,Extrasystoles,[6]; [14],4/5
same,Mortality,[6]; [14],0/5
same,Blocks,[6]; [15],3/5
same,Bradycardia,[6]; [15],1/5
same,Extrasystoles,[6]; [15],3/5
same,Mortality,[6]; [15],0/5
same,ED50,[6],0.44 (0.10–1.98) mg/kg
same,Blocks,[7],6/6
same,Bradycardia,[7],6/6
same,Extrasystoles,[7],6/6
same,Fibrillations,[7],4/6
same,Mortality,[7],6/6
"COc1ccccc1N1CCN(Cc2cccc(COc3ccccc3C(N)=O)c2)CC1.Cl [JJGW11, 2-[(3-{[4-(2-metoxyphenyl)piperazin-1-ylo]methyl}phenyl)metoxy}benzamide hydrochloride]",attenuation of the methoxamine pressor response,[1]; 2.5 mg/kg iv,99%
same,Blocks,[2]; [8],2/5
same,Bradycardia,[2]; [8],1/5
same,Mortality,[2]; [8],0/5
same,dose affecting the heart rate relative to the ED50 value in the adrenaline-induced arrhythmia model,[3]; 5 mg/kg iv vs ED50,26 fold
same,HR—heart rate,[3]; [9],281.3 ± 50.8
same,PQ interval,[3]; [9],45.8 ± 7.2
same,QRS complex,[3]; [9],38.5 ± 3.6
same,QTc (Bazzett's formula),[3]; [9],188.2 ± 12.3
same,decrease of the heart rate,[3]; 10th min after the injection,8%
same,decrease of the heart rate,[3]; 15th min after the injection,10%
same,HR—heart rate,[3]; 5 min,266.5 ± 58.2
same,PQ interval,[3]; 5 min,47.1 ± 5.7
same,QRS complex,[3]; 5 min,41.3 ± 3.0
same,QTc (Bazzett's formula),[3]; 5 min,197.3 ± 18.6
same,HR—heart rate,[3]; 10 min,258.8 ± 55.0
same,PQ interval,[3]; 10 min,47.4 ± 5.0
same,QRS complex,[3]; 10 min,42.4 ± 4.3
same,QTc (Bazzett's formula),[3]; 10 min,193.6 ± 22.0
same,HR—heart rate,[3]; 15 min,252.4 ± 50.3
same,PQ interval,[3]; 15 min,47.6 ± 5.1
same,QRS complex,[3]; 15 min,41.7 ± 5.4
same,QTc (Bazzett's formula),[3]; 15 min,184.1 ± 16.9
same,Blocks,[5],6/6
same,Bradycardia,[5],6/6
same,Extrasystoles,[5],5/6
same,Fibrillations,[5],4/6
same,Mortality,[5],6/6
same,Blocks,[6]; [11],4/5
same,Bradycardia,[6]; [11],2/5
same,Extrasystoles,[6]; [11],4/5
same,Mortality,[6]; [11],1/5
same,Blocks,[6]; [12],6/6
same,Bradycardia,[6]; [12],0/6
same,Extrasystoles,[6]; [12],6/6
same,Mortality,[6]; [12],0/6
same,Blocks,[6]; [14],1/6
same,Bradycardia,[6]; [14],2/6
same,Extrasystoles,[6]; [14],3/6
same,Mortality,[6]; [14],1/6
same,ED50,[6],0.19 (0.08–0.45) mg/kg
same,Blocks,[7],6/6
same,Bradycardia,[7],6/6
same,Extrasystoles,[7],5/6
same,Fibrillations,[7],6/6
same,Mortality,[7],6/6
